Measured values: ChEMBL document CHEMBL1150107, “Isolation and in vitro antiplasmodial activities of alkaloids from Teclea trichocarpa: in vivo antimalarial activity and X-ray crystal structure of normelicopicine” (J Nat Prod, 2002)
pIC50: −log10 of the molar value.

Tests used:
Plasmodium falciparum [1] = test: Antiplasmodial activity against chloroquine-resistant Plasmodium falciparum K1 after 48 hrs by LDH activity; assay type: functional, organism-based; details: K1, 48 h
Plasmodium falciparum [2] = test: Antiplasmodial activity against chloroquine-sensitive Plasmodium falciparum HB3 after 48 hrs by LDH reporter activity; assay type: functional, organism-based; details: HB3, 48 h
KB = test: Cytotoxicity against human KB cells by alamar blue assay; assay type: cell-based
Plasmodium berghei [3] = test: Antimalarial activity as reduced parasitaemia at day 5 against Plasmodium berghei ANKA infected BALB/c mice (Mus musculus) at 25 mg/kg/day intraperitoneal dose over 4 days; assay type: functional; parameters: scale not given: the % may be the effect or the level left
[4] = Selectivity index, ratio of IC50 for human KB cells to IC50 for chloroquine-sensitive Plasmodium falciparum HB3; assay type: toxicity, cell-based; details: read-out: Ratio IC50
[5] = Selectivity index, ratio of IC50 for human KB cells to IC50 for chloroquine-resistant Plasmodium falciparum K1; assay type: toxicity, cell-based; details: read-out: Ratio IC50
Plasmodium berghei [6] = test: Antimalarial activity as reduced parasitaemia at day 5 against Plasmodium berghei ANKA infected in BALB/c mice (Mus musculus) at 10 mg/kg/day intraperitoneal dose over 4 days; assay type: functional; parameters: scale not given: the % may be the effect or the level left

| SMILES | pIC50 (Plasmodium falciparum [1]) | pIC50 (Plasmodium falciparum [2]) | also measured |
| --- | --- | --- | --- |
| COc1cc2c(c(O)c1OC)c(=O)c1ccccc1n2C [ARBORININE] | 5.03 | 5.41 | – |
| COc1c(OC)c(OC)c2c(c1OC)c(=O)c1ccccc1n2C [MELICOPICINE] | < 4.00 | < 4.00 | – |
| COc1cc([C@@H]2c3cc4c(cc3[C@H](O)[C@H]3COC(=O)[C@H]23)OCO4)cc(OC)c1OC [PODOFILOX] | – | – | pIC50 (KB): 8.32 |
| COc1c2c(cc3c1c(=O)c1cccc(OC)c1n3C)OCO2 [TECLEANTHINE] | 4.28 | 4.63 | – |
| COc1ccc2c(=O)c3c(OC)c4c(cc3n(C)c2c1OC)OCO4 | 4.24 | 4.49 | – |
| COc1ccc2c(OC)c3ccoc3nc2c1OC [SKIMMIANINE] | 4.23 | 4.32 | – |
| COc1c(OC)c(OC)c2c(c1O)c(=O)c1ccccc1n2C [NORMELICOPICINE] | 4.83 | 5.08 | Activity (Plasmodium berghei [3]): 32.1%; pIC50 (KB): < 3.48; selectivity ratio [4]: 22; selectivity ratio [5]: 40 |
| CCN(CC)CCCC(C)Nc1ccnc2cc(Cl)ccc12.O=P(O)(O)O.O=P(O)(O)O (stereo not drawn) [CHLOROQUINE PHOSPHATE] | – | – | Activity (Plasmodium berghei [6]): 100% |
